Assay results: US11203598B2, “Compounds for repressing cancer cell growth” (Institute For Cancer Research, priority 2018, dated 2021)

Columns and labels:
[1] = biological target: T1, mutant p53 in SW480 cells (Homo sapiens, UniProt P04637, P309S/R273H); assay: cycloheximide chase assay; format: cell-based; conditions: 24 hours treatment, then 100 μg/mL cycloheximide, 0-10 hours
T1 construct: endogenous in cells; host or cells: SW480 colorectal cancer cells
Description: As mutant p53 can acquire a gain-of-function activity, targeting mutant p53 for degradation has been explored as a therapeutic strategy. To investigate the capability of CB002 to impact on mutant p53 protein expression, Western blot analysis was used. […] To confirm these findings, a cycloheximide chase assay was performed. Cells were treated with vehicle control or CB002 for a period of 24 hours. Subsequently, 100 μg/mL cycloheximide was added to the wells and protein lysates were collected at different time points between 0-10 hours. […] Referring to FIG. 6, experiments with SW480 cells (Panels A and B) and analysis of DLD-1 colorectal cancer cells (Panel C) are shown. Cells were treated for a 24 hour period with DMSO, CB002 or positive control followed by 100 μg/mL of cycloheximide addition, and protein stability was evaluated in a time course ranging from 0-10 hours. Histone deacetylase inhibitor, SAHA and Hsp90 inhibitor Geldanamycin (1 μM GA) were used as positive controls.

DLD-1 cells = assay: CellTiter-Glo luminescent cell viability assay; format: cell-based; conditions: Homo sapiens; DLD-1, 72 hours, GraphPad
Description: (§1) Cells were seeded in 96-well plates at a density of 5×10^3 cells per well. 20 μL of CellTiter-Glo® Reagent was added directly to the wells, following the manufacturer's protocol, and bioluminescence signal was determined using an IVIS imaging system.
(§2) To begin establishing the potential of CB002 as a candidate therapeutic agent, its therapeutic index was determined by treating cancer (DLD-1, SW480, and RXF393) and normal (WI38 and MRC5) cell lines with concentrations of CB002 ranging from 0-500 μM for a period of 72 hours and assessing cell viability by the CellTiter-Glo® luminescence assay (see, FIG. 2). CB002 has a significant therapeutic index among the cells tested.

[2] = system: MRC5 normal lung fibroblasts; assay: CellTiter-Glo luminescent cell viability assay; format: cell-based; conditions: Homo sapiens, MRCS (normal), 72 hours, GraphPad
Description: as §1, §2

[3] = system: RXF393 renal cancer cells; assay: CellTiter-Glo luminescent cell viability assay; format: cell-based; conditions: Homo sapiens, RXF 393; RXF393, 72 hours, GraphPad
Description: as §1, §2

DLD-1 p73kd cells = assay: CellTiter-Glo luminescent cell viability assay; format: cell-based; conditions: Homo sapiens, 72 hours, GraphPad
Description: as §1, §2

[4] = system: WI38 normal lung fibroblasts; assay: CellTiter-Glo luminescent cell viability assay; format: cell-based, human; conditions: 72 hours
Description: as §1
Cell lines at a concentration of 4×10^3 cells/well were seeded out on an opaque 96-well plate and treated with CB002 and Analog 11 in ranging doses starting from 200 μmol/L with DMSO controls. At 72 hours after treatment, cells were mixed with 30 μL Cell Titer-Glo reagent and after ten minutes of room temperature incubation were imaged using IVIS imaging system (Xenogen).
as §2

In the case of `Cn1c(=O)c2[nH]c(Nc3ccccc3)nc2n(C)c1=O` [CB002, 8-anilino-1,3-dimethyl-3,7-dihydro-1H-purine-2,6-dione], the “mutant p53 stability” value [1] is reported as “did not affect mutant p53 stability”, the IC50 (DLD-1 cells) is reported as 161 µM and the IC50 [2] is reported as 647 µM. For the same molecule, the IC50 [3] was 400 µM, the IC50 (DLD-1 p73kd cells) was 240 µM and the “IC50 in Wi38 cells compared with colorectal cancer cells” value ([4]; versus SW480, DLD-1, HCT116 and HCT116 p53-null) was “much higher”. The IC50 ([4]; Homo sapiens, WI-38, WI38 (normal), GraphPad) was 642 µM.
